{"source": "the kinase profiling compilation of Christmann-Franck et al. (2016)", "assay_in_all_cases": "SelectScreen, TR FRET", "key": {"[1]": {"molecular_target": "IRAK4 (human) (UniProt Q9NWZ3)"}, "[2]": {"molecular_target": "PRKAA1 PRKAB1 PRKAG1 (human) (UniProt P54619+Q13131+Q9Y478)", "conditions": "compound 0.1 µM"}, "[3]": {"molecular_target": "INSR (human) (UniProt P06213)"}, "[4]": {"molecular_target": "TBK1 (human) (UniProt Q9UHD2)"}, "[5]": {"molecular_target": "CDK7 CCNH MNAT1 (human) (UniProt P50613+P51948+P51946)"}, "[6]": {"molecular_target": "PASK (human) (UniProt Q96RG2)"}, "[7]": {"molecular_target": "AURKB (human) (UniProt Q96GD4)"}, "[8]": {"molecular_target": "CDC42BPA (human) (UniProt Q5VT25)"}, "[9]": {"molecular_target": "MAPK9 (human) (UniProt P45984)", "sequence (P45984 whole entry, looked up)": "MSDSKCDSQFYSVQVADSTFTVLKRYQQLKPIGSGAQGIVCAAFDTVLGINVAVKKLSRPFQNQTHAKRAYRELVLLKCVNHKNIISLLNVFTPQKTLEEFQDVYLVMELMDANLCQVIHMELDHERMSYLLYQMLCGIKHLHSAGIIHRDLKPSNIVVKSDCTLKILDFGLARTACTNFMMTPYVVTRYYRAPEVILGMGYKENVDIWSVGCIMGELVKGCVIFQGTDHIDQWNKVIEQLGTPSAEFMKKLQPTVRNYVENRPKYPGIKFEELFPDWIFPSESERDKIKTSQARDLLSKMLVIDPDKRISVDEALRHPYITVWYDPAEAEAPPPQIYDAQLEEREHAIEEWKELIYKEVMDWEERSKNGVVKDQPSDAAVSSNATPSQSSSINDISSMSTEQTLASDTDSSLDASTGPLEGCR"}, "[10]": {"molecular_target": "DYRK1A (human) (UniProt Q13627)"}, "[11]": {"molecular_target": "JAK2 JH1 JH2 (human) (UniProt O60674)"}, "[12]": {"molecular_target": "JAK1 JH1 JH2 (human) (UniProt P23458)"}, "[13]": {"molecular_target": "PRKCQ (human) (UniProt Q04759)"}, "[14]": {"molecular_target": "LRRK2 (human) (UniProt Q5S007)", "sequence (Q5S007 whole entry, looked up)": "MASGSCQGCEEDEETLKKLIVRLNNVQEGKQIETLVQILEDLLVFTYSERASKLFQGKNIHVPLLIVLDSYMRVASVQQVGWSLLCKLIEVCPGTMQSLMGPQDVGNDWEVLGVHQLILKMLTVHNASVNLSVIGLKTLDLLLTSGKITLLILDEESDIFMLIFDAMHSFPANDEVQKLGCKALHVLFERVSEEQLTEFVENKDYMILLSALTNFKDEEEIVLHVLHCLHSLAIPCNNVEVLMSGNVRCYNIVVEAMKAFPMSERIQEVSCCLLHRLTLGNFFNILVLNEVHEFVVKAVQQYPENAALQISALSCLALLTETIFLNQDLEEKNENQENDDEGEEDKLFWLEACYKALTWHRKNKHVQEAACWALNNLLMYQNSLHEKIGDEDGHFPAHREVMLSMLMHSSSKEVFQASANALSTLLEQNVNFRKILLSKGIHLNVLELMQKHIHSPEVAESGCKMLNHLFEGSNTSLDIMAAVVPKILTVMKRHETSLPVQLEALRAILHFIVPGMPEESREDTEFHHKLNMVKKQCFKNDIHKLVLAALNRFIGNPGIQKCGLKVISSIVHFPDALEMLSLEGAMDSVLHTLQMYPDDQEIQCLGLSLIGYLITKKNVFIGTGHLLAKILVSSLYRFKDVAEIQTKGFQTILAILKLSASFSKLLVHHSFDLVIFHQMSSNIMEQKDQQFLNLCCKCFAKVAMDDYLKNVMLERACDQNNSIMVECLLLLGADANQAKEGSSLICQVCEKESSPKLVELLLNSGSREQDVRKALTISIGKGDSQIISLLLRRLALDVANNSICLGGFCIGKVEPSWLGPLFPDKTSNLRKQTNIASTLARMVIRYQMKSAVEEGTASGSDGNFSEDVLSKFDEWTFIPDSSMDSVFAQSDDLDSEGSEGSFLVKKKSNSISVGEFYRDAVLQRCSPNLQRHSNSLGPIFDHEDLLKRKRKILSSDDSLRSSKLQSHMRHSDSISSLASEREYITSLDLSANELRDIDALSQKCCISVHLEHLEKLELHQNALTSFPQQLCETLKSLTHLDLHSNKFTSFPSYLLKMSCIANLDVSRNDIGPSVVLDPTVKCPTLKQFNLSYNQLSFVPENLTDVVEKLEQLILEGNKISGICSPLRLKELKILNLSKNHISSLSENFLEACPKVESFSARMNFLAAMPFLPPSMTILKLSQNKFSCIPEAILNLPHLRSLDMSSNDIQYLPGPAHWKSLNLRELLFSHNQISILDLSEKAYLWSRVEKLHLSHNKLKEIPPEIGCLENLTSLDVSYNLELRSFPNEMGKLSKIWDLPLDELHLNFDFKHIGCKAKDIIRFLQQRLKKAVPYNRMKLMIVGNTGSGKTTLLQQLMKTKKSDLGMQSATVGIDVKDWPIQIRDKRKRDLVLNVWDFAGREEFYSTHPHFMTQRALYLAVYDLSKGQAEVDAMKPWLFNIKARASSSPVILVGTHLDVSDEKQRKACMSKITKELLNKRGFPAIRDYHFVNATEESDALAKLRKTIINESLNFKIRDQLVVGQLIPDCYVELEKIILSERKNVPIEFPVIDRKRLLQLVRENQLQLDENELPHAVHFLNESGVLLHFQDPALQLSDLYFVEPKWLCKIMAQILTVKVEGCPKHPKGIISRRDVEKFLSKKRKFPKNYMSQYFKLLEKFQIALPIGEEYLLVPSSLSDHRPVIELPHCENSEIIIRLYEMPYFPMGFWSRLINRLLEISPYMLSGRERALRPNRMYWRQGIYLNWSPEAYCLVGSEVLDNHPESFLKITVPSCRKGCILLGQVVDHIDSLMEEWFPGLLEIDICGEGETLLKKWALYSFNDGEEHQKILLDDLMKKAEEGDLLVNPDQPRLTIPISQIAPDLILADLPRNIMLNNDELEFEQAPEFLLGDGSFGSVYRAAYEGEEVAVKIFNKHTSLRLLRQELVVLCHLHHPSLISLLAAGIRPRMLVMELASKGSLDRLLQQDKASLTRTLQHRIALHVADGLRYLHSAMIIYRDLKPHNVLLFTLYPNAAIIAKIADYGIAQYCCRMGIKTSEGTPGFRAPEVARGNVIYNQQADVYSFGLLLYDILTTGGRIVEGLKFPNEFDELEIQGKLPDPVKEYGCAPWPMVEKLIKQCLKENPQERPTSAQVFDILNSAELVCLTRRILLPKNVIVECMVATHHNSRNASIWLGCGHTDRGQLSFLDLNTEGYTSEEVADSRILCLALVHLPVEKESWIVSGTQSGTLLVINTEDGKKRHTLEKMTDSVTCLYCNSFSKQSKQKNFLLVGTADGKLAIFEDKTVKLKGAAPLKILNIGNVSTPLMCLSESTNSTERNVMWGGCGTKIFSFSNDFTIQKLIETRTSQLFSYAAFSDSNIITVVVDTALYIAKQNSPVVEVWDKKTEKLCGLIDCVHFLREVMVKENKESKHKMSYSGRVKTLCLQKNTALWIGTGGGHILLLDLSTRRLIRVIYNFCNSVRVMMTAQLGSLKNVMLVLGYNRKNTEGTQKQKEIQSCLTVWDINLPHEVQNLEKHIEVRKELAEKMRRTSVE"}, "[15]": {"molecular_target": "GRK4 (human) (UniProt P32298)"}, "[16]": {"molecular_target": "IKBKB (human) (UniProt O14920)"}, "[17]": {"molecular_target": "CHEK2 (human) (UniProt O96017)"}, "[18]": {"molecular_target": "MAPK8 (human) (UniProt P45983)"}, "[19]": {"molecular_target": "CSNK1A1 (human) (UniProt P48729)", "sequence (P48729 whole entry, looked up)": "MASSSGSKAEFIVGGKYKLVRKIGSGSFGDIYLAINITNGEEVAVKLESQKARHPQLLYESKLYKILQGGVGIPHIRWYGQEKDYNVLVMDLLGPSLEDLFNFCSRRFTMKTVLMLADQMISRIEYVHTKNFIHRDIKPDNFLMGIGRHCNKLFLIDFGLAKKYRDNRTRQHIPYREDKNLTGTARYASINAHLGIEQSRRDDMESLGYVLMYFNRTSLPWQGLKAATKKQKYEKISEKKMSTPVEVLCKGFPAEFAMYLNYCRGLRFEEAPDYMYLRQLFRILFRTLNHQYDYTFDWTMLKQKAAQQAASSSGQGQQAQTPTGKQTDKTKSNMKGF"}, "[20]": {"molecular_target": "TYK2 JH1 JH2 (human) (UniProt P29597)"}, "[21]": {"molecular_target": "GSK3B (human) (UniProt P49841)"}, "[22]": {"molecular_target": "ACVR1B (human) (UniProt P36896)"}, "[23]": {"molecular_target": "CSNK2A1 (human) (UniProt P68400)", "sequence (P68400 whole entry, looked up)": "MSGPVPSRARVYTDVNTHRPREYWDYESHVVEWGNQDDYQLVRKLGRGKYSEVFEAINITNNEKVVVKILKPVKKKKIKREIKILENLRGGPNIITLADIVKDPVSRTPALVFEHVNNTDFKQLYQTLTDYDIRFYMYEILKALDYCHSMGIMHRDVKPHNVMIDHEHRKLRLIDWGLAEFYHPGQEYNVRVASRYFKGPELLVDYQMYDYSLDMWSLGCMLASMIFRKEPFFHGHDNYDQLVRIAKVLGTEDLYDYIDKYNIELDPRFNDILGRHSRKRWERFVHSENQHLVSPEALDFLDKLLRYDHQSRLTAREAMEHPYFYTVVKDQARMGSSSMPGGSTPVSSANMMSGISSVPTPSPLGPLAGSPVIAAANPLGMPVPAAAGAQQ"}, "[24]": {"molecular_target": "PRKACA (human) (UniProt P17612)"}, "[25]": {"molecular_target": "MAPKAPK5 (human) (UniProt Q8IW41)", "sequence (Q8IW41 whole entry, looked up)": "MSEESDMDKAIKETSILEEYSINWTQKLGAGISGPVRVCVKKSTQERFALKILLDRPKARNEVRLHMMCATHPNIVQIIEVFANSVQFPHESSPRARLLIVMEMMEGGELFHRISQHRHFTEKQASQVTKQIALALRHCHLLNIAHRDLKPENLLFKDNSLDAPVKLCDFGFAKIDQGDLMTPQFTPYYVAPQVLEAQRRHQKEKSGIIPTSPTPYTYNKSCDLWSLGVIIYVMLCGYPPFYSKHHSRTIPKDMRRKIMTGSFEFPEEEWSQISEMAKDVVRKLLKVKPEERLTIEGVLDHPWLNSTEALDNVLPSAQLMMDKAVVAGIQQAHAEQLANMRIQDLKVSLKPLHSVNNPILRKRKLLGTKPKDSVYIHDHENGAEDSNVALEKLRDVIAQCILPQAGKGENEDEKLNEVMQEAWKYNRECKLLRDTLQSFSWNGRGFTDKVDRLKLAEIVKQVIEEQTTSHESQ"}, "[26]": {"molecular_target": "BTK (human) (UniProt Q06187)", "sequence (Q06187 whole entry, looked up)": "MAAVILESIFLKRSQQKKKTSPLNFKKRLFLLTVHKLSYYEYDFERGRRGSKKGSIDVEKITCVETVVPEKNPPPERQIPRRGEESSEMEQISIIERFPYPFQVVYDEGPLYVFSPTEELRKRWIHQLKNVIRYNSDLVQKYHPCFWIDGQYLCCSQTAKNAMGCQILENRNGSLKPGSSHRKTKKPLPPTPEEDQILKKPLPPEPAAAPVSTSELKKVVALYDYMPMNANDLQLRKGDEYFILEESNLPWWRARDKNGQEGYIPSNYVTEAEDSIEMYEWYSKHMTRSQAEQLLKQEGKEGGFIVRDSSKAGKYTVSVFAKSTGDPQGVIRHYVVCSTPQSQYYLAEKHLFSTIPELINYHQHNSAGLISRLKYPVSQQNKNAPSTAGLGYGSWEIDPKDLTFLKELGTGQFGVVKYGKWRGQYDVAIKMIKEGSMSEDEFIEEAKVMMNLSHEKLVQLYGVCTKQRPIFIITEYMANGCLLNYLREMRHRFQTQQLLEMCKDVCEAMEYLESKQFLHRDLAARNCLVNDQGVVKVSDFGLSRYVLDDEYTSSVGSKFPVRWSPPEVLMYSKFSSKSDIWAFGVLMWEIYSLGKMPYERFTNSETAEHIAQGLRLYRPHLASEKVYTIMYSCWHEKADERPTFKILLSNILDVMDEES"}, "[27]": {"molecular_target": "MINK1 (human) (UniProt Q8N4C8)"}, "[28]": {"molecular_target": "PRKAA2 PRKAB1 PRKAG1 (human) (UniProt Q9Y478+P54646+P54619)", "conditions": "compound 0.1 µM"}}}
{"smiles": "Cn1cc(-c2cnc3ccc4ccc(CC(=O)NCc5ccccn5)cc4c(=O)c3c2)cn1", "values": [{"measurement": "inhibition", "setting": "[1]; compound 0.1 µM", "value": 19.8, "unit": "%"}, {"measurement": "inhibition", "setting": "[1]; compound 1.0 µM", "value": 25.5, "unit": "%"}, {"measurement": "inhibition", "setting": "[1]; compound 10.0 µM", "value": 59, "unit": "%"}, {"measurement": "inhibition", "setting": "[2]", "value": 2.1, "unit": "%"}, {"measurement": "inhibition", "setting": "[3]; compound 0.1 µM", "value": 9.9, "unit": "%"}, {"measurement": "inhibition", "setting": "[3]; compound 1.0 µM", "value": 7.3, "unit": "%"}, {"measurement": "inhibition", "setting": "[3]; compound 10.0 µM", "value": 0.6, "unit": "%"}, {"measurement": "inhibition", "setting": "[4]; compound 0.1 µM", "value": -1.6, "unit": "%"}, {"measurement": "inhibition", "setting": "[4]; compound 1.0 µM", "value": 7.8, "unit": "%"}, {"measurement": "inhibition", "setting": "[4]; compound 10.0 µM", "value": 33.2, "unit": "%"}, {"measurement": "inhibition", "setting": "[5]; compound 0.1 µM", "value": 1, "unit": "%"}, {"measurement": "inhibition", "setting": "[5]; compound 1.0 µM", "value": 6.4, "unit": "%"}, {"measurement": "inhibition", "setting": "[5]; compound 10.0 µM", "value": 11.8, "unit": "%"}, {"measurement": "inhibition", "setting": "[6]; compound 0.1 µM", "value": 7.5, "unit": "%"}, {"measurement": "inhibition", "setting": "[6]; compound 1.0 µM", "value": 5.9, "unit": "%"}, {"measurement": "inhibition", "setting": "[6]; compound 10.0 µM", "value": 11.1, "unit": "%"}, {"measurement": "inhibition", "setting": "[7]; compound 0.1 µM", "value": 19.7, "unit": "%"}, {"measurement": "inhibition", "setting": "[7]; compound 1.0 µM", "value": 51.8, "unit": "%"}, {"measurement": "inhibition", "setting": "[7]; compound 10.0 µM", "value": 96.4, "unit": "%"}, {"measurement": "inhibition", "setting": "[8]; compound 0.1 µM", "value": 6.3, "unit": "%"}, {"measurement": "inhibition", "setting": "[8]; compound 1.0 µM", "value": 8.7, "unit": "%"}, {"measurement": "inhibition", "setting": "[8]; compound 10.0 µM", "value": 8.6, "unit": "%"}, {"measurement": "inhibition", "setting": "[9]; compound 0.1 µM", "value": -1.5, "unit": "%"}, {"measurement": "inhibition", "setting": "[9]; compound 1.0 µM", "value": 3.7, "unit": "%"}, {"measurement": "inhibition", "setting": "[9]; compound 10.0 µM", "value": 10.8, "unit": "%"}, {"measurement": "inhibition", "setting": "[10]; compound 0.1 µM", "value": 10.7, "unit": "%"}, {"measurement": "inhibition", "setting": "[10]; compound 1.0 µM", "value": 33.3, "unit": "%"}, {"measurement": "inhibition", "setting": "[10]; compound 10.0 µM", "value": 79, "unit": "%"}, {"measurement": "inhibition", "setting": "[11]; compound 0.1 µM", "value": 4.4, "unit": "%"}, {"measurement": "inhibition", "setting": "[11]; compound 1.0 µM", "value": 12.5, "unit": "%"}, {"measurement": "inhibition", "setting": "[11]; compound 10.0 µM", "value": 41, "unit": "%"}, {"measurement": "inhibition", "setting": "[12]; compound 0.1 µM", "value": 7.6, "unit": "%"}, {"measurement": "inhibition", "setting": "[12]; compound 1.0 µM", "value": 12.3, "unit": "%"}, {"measurement": "inhibition", "setting": "[12]; compound 10.0 µM", "value": 9.4, "unit": "%"}, {"measurement": "inhibition", "setting": "[13]; compound 0.1 µM", "value": 7.2, "unit": "%"}, {"measurement": "inhibition", "setting": "[13]; compound 1.0 µM", "value": 7.1, "unit": "%"}, {"measurement": "inhibition", "setting": "[13]; compound 10.0 µM", "value": 7.7, "unit": "%"}, {"measurement": "inhibition", "setting": "[14]; compound 0.1 µM", "value": 19.9, "unit": "%"}, {"measurement": "inhibition", "setting": "[14]; compound 1.0 µM", "value": 25.4, "unit": "%"}, {"measurement": "inhibition", "setting": "[14]; compound 10.0 µM", "value": 54.3, "unit": "%"}, {"measurement": "inhibition", "setting": "[15]; compound 0.1 µM", "value": 12.9, "unit": "%"}, {"measurement": "inhibition", "setting": "[15]; compound 1.0 µM", "value": 11.9, "unit": "%"}, {"measurement": "inhibition", "setting": "[15]; compound 10.0 µM", "value": 37.1, "unit": "%"}, {"measurement": "inhibition", "setting": "[16]; compound 0.1 µM", "value": 4.6, "unit": "%"}, {"measurement": "inhibition", "setting": "[16]; compound 1.0 µM", "value": 6.6, "unit": "%"}, {"measurement": "inhibition", "setting": "[16]; compound 10.0 µM", "value": 8.5, "unit": "%"}, {"measurement": "inhibition", "setting": "[17]; compound 0.1 µM", "value": 11.8, "unit": "%"}, {"measurement": "inhibition", "setting": "[17]; compound 1.0 µM", "value": 17.1, "unit": "%"}, {"measurement": "inhibition", "setting": "[17]; compound 10.0 µM", "value": 43.6, "unit": "%"}, {"measurement": "inhibition", "setting": "[18]; compound 0.1 µM", "value": 2.8, "unit": "%"}, {"measurement": "inhibition", "setting": "[18]; compound 1.0 µM", "value": 0.1, "unit": "%"}, {"measurement": "inhibition", "setting": "[18]; compound 10.0 µM", "value": 6.2, "unit": "%"}, {"measurement": "inhibition", "setting": "[19]; compound 0.1 µM", "value": 5.1, "unit": "%"}, {"measurement": "inhibition", "setting": "[19]; compound 1.0 µM", "value": 4.8, "unit": "%"}, {"measurement": "inhibition", "setting": "[19]; compound 10.0 µM", "value": 13.3, "unit": "%"}, {"measurement": "inhibition", "setting": "[20]; compound 0.1 µM", "value": 5.1, "unit": "%"}, {"measurement": "inhibition", "setting": "[20]; compound 1.0 µM", "value": 8, "unit": "%"}, {"measurement": "inhibition", "setting": "[20]; compound 10.0 µM", "value": 23.7, "unit": "%"}, {"measurement": "inhibition", "setting": "[21]; compound 0.1 µM", "value": 7.3, "unit": "%"}, {"measurement": "inhibition", "setting": "[21]; compound 1.0 µM", "value": 8.1, "unit": "%"}, {"measurement": "inhibition", "setting": "[21]; compound 10.0 µM", "value": 64, "unit": "%"}, {"measurement": "inhibition", "setting": "[22]; compound 0.1 µM", "value": 12.8, "unit": "%"}, {"measurement": "inhibition", "setting": "[22]; compound 1.0 µM", "value": 12.6, "unit": "%"}, {"measurement": "inhibition", "setting": "[22]; compound 10.0 µM", "value": 10.1, "unit": "%"}, {"measurement": "inhibition", "setting": "[23]; compound 0.1 µM", "value": 8.2, "unit": "%"}, {"measurement": "inhibition", "setting": "[23]; compound 1.0 µM", "value": 9.2, "unit": "%"}, {"measurement": "inhibition", "setting": "[23]; compound 10.0 µM", "value": 10.2, "unit": "%"}, {"measurement": "inhibition", "setting": "[24]; compound 0.1 µM", "value": 6.3, "unit": "%"}, {"measurement": "inhibition", "setting": "[24]; compound 1.0 µM", "value": 7.7, "unit": "%"}, {"measurement": "inhibition", "setting": "[24]; compound 10.0 µM", "value": 9.5, "unit": "%"}, {"measurement": "inhibition", "setting": "[25]; compound 0.1 µM", "value": 5.2, "unit": "%"}, {"measurement": "inhibition", "setting": "[25]; compound 1.0 µM", "value": 6.7, "unit": "%"}, {"measurement": "inhibition", "setting": "[25]; compound 10.0 µM", "value": 7.9, "unit": "%"}, {"measurement": "inhibition", "setting": "[26]; compound 0.1 µM", "value": 10.9, "unit": "%"}, {"measurement": "inhibition", "setting": "[26]; compound 1.0 µM", "value": 13.4, "unit": "%"}, {"measurement": "inhibition", "setting": "[26]; compound 10.0 µM", "value": 15.4, "unit": "%"}, {"measurement": "inhibition", "setting": "[27]; compound 0.1 µM", "value": 19.9, "unit": "%"}, {"measurement": "inhibition", "setting": "[27]; compound 1.0 µM", "value": 29.2, "unit": "%"}, {"measurement": "inhibition", "setting": "[27]; compound 10.0 µM", "value": 71.1, "unit": "%"}, {"measurement": "inhibition", "setting": "[28]", "value": 11.6, "unit": "%"}]}
